Like-named read-outs stand apart in the source and are kept apart here.
Key:
human CB1 receptor [1] = target: T1, human CB1 receptor (Homo sapiens, UniProt P21554); experiment: Human CB1 receptor binding, [3H] CP-55,940 displacement on HEK cell membranes; design: expressed in transfected cells; host or cells: HEK cells, doxycycline-induced; membrane preparation
Method in brief: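 Membranes from doxycycline-induced HEK cells expressing human CB1 incubated 60 min at room temperature with [3H] CP-55,940 (final […]) in 50 mM Tris pH 7.4, 100 mM NaCl, 3 mM MgCl2, 0.2 mM EGTA, 0.04% BSA. Nonspecific binding defined with 50 μM WIN-55,212-2; filtration and scintillation counting gave EC50 and Ki.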

human CB1 receptor [2] = target: T1, human CB1 receptor; experiment: [35S] GTPγS binding on membranes of CHO cells expressing the human CB1 receptor (agonism); assay type: biochemical; design: expressed in transfected cells; membrane preparation
Method in brief: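 Membranes from human CB1-expressing CHO cells (5 μg/well) incubated with test compound and [35S]GTPγS in 50 mM Tris pH 7.4, 100 mM NaCl, 3 mM MgCl2, 0.2 mM EGTA, 0.04% BSA for 45 min at 37 °C. Bound label collected by filtration, scintillation counted; EC50 from curve fits.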

[3] = human CB1, CHO cell membranes, read-out: GTPγS EC50
[4] = GTPγS EC50, human CB1, CHO cell membranes

T1 sequence (P21554 whole entry): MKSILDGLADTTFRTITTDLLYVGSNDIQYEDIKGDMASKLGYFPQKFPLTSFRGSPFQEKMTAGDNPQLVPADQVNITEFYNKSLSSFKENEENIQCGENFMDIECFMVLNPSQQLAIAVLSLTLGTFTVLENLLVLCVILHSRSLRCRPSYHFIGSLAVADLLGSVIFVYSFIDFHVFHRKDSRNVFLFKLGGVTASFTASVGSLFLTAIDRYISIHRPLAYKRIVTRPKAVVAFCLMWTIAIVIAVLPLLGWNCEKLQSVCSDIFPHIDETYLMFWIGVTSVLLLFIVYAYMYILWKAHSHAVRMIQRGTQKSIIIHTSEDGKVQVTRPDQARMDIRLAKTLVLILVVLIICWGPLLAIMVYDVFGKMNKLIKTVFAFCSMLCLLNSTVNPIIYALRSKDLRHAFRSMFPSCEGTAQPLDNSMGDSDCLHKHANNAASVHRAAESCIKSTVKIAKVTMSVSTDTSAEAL

`CC(C)(C)[C@H](NC(=O)c1nn(Cc2ccc(F)cc2)c2ccccc12)C(=O)NCc1nnc(C(=O)NCCO)o1` [Example 462] showed a Ki (human CB1 receptor [1]; read-out: CB1 Ki) of 0.00229 µM and an EC50 (human CB1 receptor [2]; [3]) of 0.013 µM.
`CC(C)(C)[C@H](NC(=O)c1nn(Cc2ccc(F)cc2)c2ccccc12)C(=O)NCCC(N)=O` [Example 470] was tested, and the Ki (human CB1 receptor [1]; CB1 Ki) was 0.0112 µM and the EC50 (human CB1 receptor [2]; [4]) was 0.0337 µM.
`CC(C)(C)[C@H](NC(=O)c1nn(Cc2ccc(F)cc2F)c2ccccc12)C(=O)NCCC(N)=O` [Example 472] showed a Ki (human CB1 receptor [1]; CB1 Ki) of 0.0196 µM and an EC50 (human CB1 receptor [2]; [4]) of 0.0527 µM.
With `CC(C)(C)[C@H](NC(=O)c1nn(Cc2ccc(F)c(F)c2)c2ccccc12)C(=O)NCCC(N)=O` [Example 473] the Ki (human CB1 receptor [1]; CB1 Ki) was 0.017 µM and the EC50 (human CB1 receptor [2]; [4]) was 0.0418 µM.
With `CC(C)(C)[C@H](NC(=O)c1nn(Cc2ccc(F)cc2)c2c(F)cccc12)C(=O)NCCC(N)=O` [Example 476] the Ki (human CB1 receptor [1]; CB1 Ki) was 0.00648 µM and the EC50 (human CB1 receptor [2]; [4]) was 0.0314 µM.
`CC(C)(C)[C@H](NC(=O)c1nn(Cc2ccc(F)cc2)c2ccccc12)C(=O)NCCOc1ccccn1` [Example 478] showed a Ki (human CB1 receptor [1]; read-out: CB1 Ki) of 0.0213 µM and an EC50 (human CB1 receptor [2]; [3]) of 0.0237 µM.
`CC(C)(C)[C@H](NC(=O)c1nn(Cc2ccc(F)cc2)c2ccccc12)C(=O)NCCOc1ccnc(N)n1` [Example 479] showed a Ki (human CB1 receptor [1]; read-out: CB1 Ki) of 0.0134 µM and an EC50 (human CB1 receptor [2]; [3]) of 0.131 µM.
Molecule `CC(C)(C)[C@H](NC(=O)c1nn(Cc2ccc(F)cc2)c2ccccc12)C(=O)NCCNc1ccccn1` [Example 480] has a Ki (human CB1 receptor [1]; read-out: CB1 Ki) of 0.0153 µM and an EC50 (human CB1 receptor [2]; [3]) of 0.0426 µM.
Molecule `CC(C)(C)[C@H](NC(=O)c1nn(Cc2ccc(F)cc2)c2ccccc12)C(=O)NCCc1cnccn1` [Example 482] has a Ki (human CB1 receptor [1]; read-out: CB1 Ki) of 0.0121 µM and an EC50 (human CB1 receptor [2]; [3]) of 0.0222 µM.
`CC(C)(C)[C@H](NC(=O)c1nn(Cc2ccc(F)cc2)c2ccccc12)C(=O)NC[C@H]1C[C@@H]1CO` [Example 488] gave a Ki (human CB1 receptor [1]; CB1 Ki) of 0.00561 µM and an EC50 (human CB1 receptor [2]; [4]) of 0.0214 µM.
`CC(C)(C)[C@H](NC(=O)c1nn(Cc2ccc(C#N)cc2)c2c(F)cccc12)C(=O)NC[C@H]1C[C@H]1CO` [Example 490] gave a Ki (human CB1 receptor [1]; CB1 Ki) of 0.0124 µM and an EC50 (human CB1 receptor [2]; [4]) of 0.0631 µM.
Molecule `CC(C)(C)[C@H](NC(=O)c1nn(Cc2ccc(F)cc2)c2ccccc12)C(=O)NC[C@H]1C[C@H]1CO` [Example 492] has a Ki (human CB1 receptor [1]; CB1 Ki) of 0.00132 µM and an EC50 (human CB1 receptor [2]; [4]) of 0.00971 µM.
For `CC(C)NC(=O)CNC(=O)[C@@H](NC(=O)c1nn(Cc2ccc(F)cc2)c2ccccc12)C(C)(C)C` [Example 493], the Ki (human CB1 receptor [1]; CB1 Ki) was 0.00095 µM and the EC50 (human CB1 receptor [2]; [4]) was 0.00994 µM.
`CC(C)(C)[C@H](NC(=O)c1nn(Cc2ccc(F)cc2)c2ccccc12)C(=O)NCC(=O)NC1CC1` [Example 494] gave a Ki (human CB1 receptor [1]; CB1 Ki) of 0.00034 µM and an EC50 (human CB1 receptor [2]; [4]) of 0.00117 µM.
For `CC(C)(C)[C@H](NC(=O)c1nn(Cc2ccc(F)cc2)c2c(F)cc(Cl)cc12)C(=O)NC[C@H](O)CO` [Example 496], the Ki (human CB1 receptor [1]; CB1 Ki) was 0.0165 µM and the EC50 (human CB1 receptor [2]; [4]) was 0.0302 µM.
Work on `CC(C)(C)[C@H](NC(=O)c1nn(Cc2ccc(F)cc2)c2c(F)cc(Cl)cc12)C(=O)NCCS(N)(=O)=O` [Example 497] yielded a Ki (human CB1 receptor [1]; CB1 Ki) of 0.0167 µM and an EC50 (human CB1 receptor [2]; [4]) of 0.0595 µM.
`CC(C)(C)[C@H](NC(=O)c1nn(Cc2ccc(F)cc2)c2c(F)cc(Cl)cc12)C(=O)NCC(N)=O` [Example 498] showed a Ki (human CB1 receptor [1]; CB1 Ki) of 0.0164 µM and an EC50 (human CB1 receptor [2]; [4]) of 0.0383 µM.
`CC(C)(C)[C@H](NC(=O)c1nn(Cc2ccc(F)cc2)c2ccccc12)C(=O)NCCN1CCCC1=O` [Example 499] was tested, and the Ki (human CB1 receptor [1]; read-out: CB1 Ki) was 0.0183 µM and the EC50 (human CB1 receptor [2]; [3]) was 0.204 µM.
`CC(C)(C)[C@H](NC(=O)c1nn(Cc2ccc(F)cc2)c2ccccc12)C(=O)NCCN1Cc2ncccc2C1=O` [Example 500] was tested, and the Ki (human CB1 receptor [1]; read-out: CB1 Ki) was 0.0101 µM and the EC50 (human CB1 receptor [2]; [3]) was 0.0474 µM.
`CC(C)(C)[C@H](NC(=O)c1nn(Cc2ccc(F)cc2)c2ccccc12)C(=O)NCCc1nc2ccccc2c(=O)[nH]1` [Example 501] showed a Ki (human CB1 receptor [1]; read-out: CB1 Ki) of 0.0242 µM and an EC50 (human CB1 receptor [2]; [3]) of 0.0168 µM.
In the case of `CC(C)(C)[C@H](NC(=O)c1nn(Cc2ccc(F)cc2)c2ccccc12)C(=O)NCCn1ccccc1=O` [Example 502], the Ki (human CB1 receptor [1]; read-out: CB1 Ki) is reported as 0.0173 µM and the EC50 (human CB1 receptor [2]; [3]) is reported as 0.0369 µM.
With `CC(C)(C)[C@H](NC(=O)c1nn(Cc2ccc(F)cc2)c2ccccc12)C(=O)NC[C@H](O)CN1CCOCC1` [Example 504] the Ki (human CB1 receptor [1]; read-out: CB1 Ki) was 0.0213 µM and the EC50 (human CB1 receptor [2]; [3]) was 0.132 µM.
`CC(C)(C)[C@H](NC(=O)c1nn(Cc2ccc(F)cc2)c2ccccc12)C(=O)NCCc1n[nH]c(=O)[nH]1` [Example 506] showed a Ki (human CB1 receptor [1]; read-out: CB1 Ki) of 0.0013 µM and an EC50 (human CB1 receptor [2]; [3]) of 0.00897 µM.
With `Cc1cc2c(C(=O)N[C@H](C(=O)NCc3nnc(C(N)=O)o3)C(C)(C)C)nn(Cc3ccc(F)cc3)c2cc1F` [Example 508] the Ki (human CB1 receptor [1]; read-out: CB1 Ki) was 0.00271 µM and the EC50 (human CB1 receptor [2]; [3]) was 0.0162 µM.
For `Cc1cc2c(C(=O)N[C@H](C(N)=O)C(C)(C)C)nn(Cc3ccc(F)cc3)c2cc1F` [Example 509], the Ki (human CB1 receptor [1]; CB1 Ki) was 0.00045 µM and the EC50 (human CB1 receptor [2]; [4]) was 0.00755 µM.
Molecule `Cc1cc2c(C(=O)N[C@H](C(=O)NC[C@H](O)CO)C(C)(C)C)nn(Cc3ccc(F)cc3)c2cc1F` [Example 510] has a Ki (human CB1 receptor [1]; CB1 Ki) of 0.00687 µM and an EC50 (human CB1 receptor [2]; [4]) of 0.0248 µM.
In the case of `Cc1cc2c(C(=O)N[C@H](C(=O)NCCO)C(C)(C)C)nn(Cc3ccc(F)cc3)c2cc1F` [Example 511], the Ki (human CB1 receptor [1]; CB1 Ki) is reported as 0.00068 µM and the EC50 (human CB1 receptor [2]; [4]) is reported as 0.0067 µM.
Molecule `Cc1cc2c(C(=O)N[C@H](C(=O)NCCS(N)(=O)=O)C(C)(C)C)nn(Cc3ccc(F)cc3)c2cc1F` [Example 512] has a Ki (human CB1 receptor [1]; CB1 Ki) of 0.0084 µM and an EC50 (human CB1 receptor [2]; [4]) of 0.0314 µM.
In the case of `CC(C)(C)[C@H](NC(=O)c1nn(Cc2ccc(F)cc2)c2ccccc12)C(=O)Nc1cnoc1` [Example 513], the Ki (human CB1 receptor [1]; CB1 Ki) is reported as 0.0023 µM and the EC50 (human CB1 receptor [2]; [4]) is reported as 0.0137 µM.
Molecule `Cc1cc(NC(=O)[C@@H](NC(=O)c2nn(Cc3ccc(F)cc3)c3ccccc23)C(C)(C)C)sn1` [Example 514] has a Ki (human CB1 receptor [1]; CB1 Ki) of 0.00303 µM and an EC50 (human CB1 receptor [2]; [4]) of 0.0333 µM.
`CC(C)(C)[C@H](NC(=O)c1nn(Cc2ccc(F)cc2)c2ccccc12)C(=O)NC[C@@H](O)[C@H](O)CO` [Example 516] was tested, and the Ki (human CB1 receptor [1]; CB1 Ki) was 0.00428 µM and the EC50 (human CB1 receptor [2]; [4]) was 0.0446 µM.
For `CC(C)(C)[C@H](NC(=O)c1nn(Cc2ccc(F)cc2)c2ccccc12)C(=O)NC[C@H](O)[C@@H](O)CO` [Example 517], the Ki (human CB1 receptor [1]; CB1 Ki) was 0.0159 µM and the EC50 (human CB1 receptor [2]; [4]) was 0.111 µM.
With `CC(C)(C)[C@H](NC(=O)c1nn(Cc2ccc(F)cc2)c2ccccc12)C(=O)NCC(=O)Nc1cnoc1` [Example 518] the Ki (human CB1 receptor [1]; read-out: CB1 Ki) was 0.0018 µM and the EC50 (human CB1 receptor [2]; [3]) was 0.0136 µM.
`CC(C)(C)[C@H](NC(=O)c1nn(Cc2ccc(F)cc2)c2ccccc12)C(=O)NCC(=O)Nc1nncs1` [Example 519] showed a Ki (human CB1 receptor [1]; read-out: CB1 Ki) of 0.00095 µM and an EC50 (human CB1 receptor [2]; [3]) of 0.00577 µM.
`CC(C)(C)[C@H](NC(=O)c1nn(Cc2ccc(F)cc2)c2ccccc12)C(=O)NCC(=O)Nc1ccccn1` [Example 520] gave a Ki (human CB1 receptor [1]; read-out: CB1 Ki) of 0.00188 µM and an EC50 (human CB1 receptor [2]; [3]) of 0.0101 µM.
For `CC(C)(C)[C@H](NC(=O)c1nn(Cc2ccc(F)cc2)c2ccccc12)C(=O)NCC(=O)NC[C@@H](O)CO` [Example 523], the Ki (human CB1 receptor [1]; read-out: CB1 Ki) was 0.00522 µM and the EC50 (human CB1 receptor [2]; [3]) was 0.0028 µM.

Reference: patent US20110028447A1, “INDAZOLE DERIVATIVES” (Pfizer Inc., priority 2008, published 2011)
